Assay results taken from the NIST ThermoML archive (doi:10.1021/je100864e).
Numbers after ± are expanded uncertainties.

Experiment: mn = molality of the nth substance listed, in mol/kg
Details: 101 kPa, Liquid

O=C([O-])CC(O)(CC(=O)[O-])C(=O)O.[Na+].[Na+] [disodium hydrogen citrate] + O
mass density [kg/m3]
Details | 288.15 K | 293.15 K | 298.15 K | 303.15 K | 308.15 K
m1 = 0.0095 | 1000.55 ± 0.24 | 999.632 ± 0.27 | 998.455 ± 0.27 | 997.044 ± 0.27 | 995.414 ± 0.25
m1 = 0.0114 | 1000.84 ± 0.24 | 999.92 ± 0.24 | 998.74 ± 0.24 | 997.324 ± 0.25 | 995.691 ± 0.25
m1 = 0.0133 | 1001.13 ± 0.24 | 1000.21 ± 0.24 | 999.021 ± 0.24 | 997.605 ± 0.24 | 995.97 ± 0.25
m1 = 0.015 | 1001.38 ± 0.24 | 1000.46 ± 0.24 | 999.268 ± 0.24 | 997.849 ± 0.24 | 996.213 ± 0.24
m1 = 0.0172 | 1001.71 ± 0.24 | 1000.78 ± 0.24 | 999.588 ± 0.24 | 998.164 ± 0.24 | 996.524 ± 0.24
m1 = 0.0187 | 1001.93 ± 0.25 | 1000.99 ± 0.25 | 999.8 ± 0.24 | 998.374 ± 0.25 | 996.735 ± 0.25
m1 = 0.021 | 1002.28 ± 0.25 | 1001.35 ± 0.24 | 1000.15 ± 0.24 | 998.719 ± 0.24 | 997.077 ± 0.24
m1 = 0.0229 | 1002.56 ± 0.24 | 1001.62 ± 0.24 | 1000.42 ± 0.24 | 998.99 ± 0.24 | 997.344 ± 0.24
m1 = 0.0267 | 1003.12 ± 0.25 | 1002.18 ± 0.24 | 1000.97 ± 0.24 | 999.532 ± 0.24 | 997.881 ± 0.24
m1 = 0.0307 | 1003.73 ± 0.25 | 1002.77 ± 0.24 | 1001.56 ± 0.24 | 1000.12 ± 0.24 | 998.461 ± 0.24
m1 = 0.0344 | 1004.28 ± 0.25 | 1003.32 ± 0.25 | 1002.1 ± 0.24 | 1000.65 ± 0.24 | 998.99 ± 0.24
m1 = 0.0374 | 1004.73 ± 0.25 | 1003.76 ± 0.23 | 1002.54 ± 0.23 | 1001.09 ± 0.23 | 999.421 ± 0.24
m1 = 0.057 | 1007.64 ± 0.25 | 1006.63 ± 0.25 | 1005.38 ± 0.25 | 1003.9 ± 0.25 | 1002.21 ± 0.24
m1 = 0.0771 | 1010.58 ± 0.26 | 1009.54 ± 0.26 | 1008.25 ± 0.25 | 1006.75 ± 0.25 | 1005.03 ± 0.25
m1 = 0.0953 | 1013.22 ± 0.26 | 1012.15 ± 0.26 | 1010.84 ± 0.26 | 1009.31 ± 0.26 | 1007.58 ± 0.25
m1 = 0.1157 | 1016.16 ± 0.27 | 1015.05 ± 0.27 | 1013.71 ± 0.26 | 1012.16 ± 0.26 | 1010.4 ± 0.26
m1 = 0.1332 | 1018.67 ± 0.27 | 1017.54 ± 0.27 | 1016.17 ± 0.27 | 1014.59 ± 0.27 | 1012.82 ± 0.26
m1 = 0.1542 | 1021.64 ± 0.28 | 1020.48 ± 0.28 | 1019.09 ± 0.27 | 1017.48 ± 0.27 | 1015.68 ± 0.27
m1 = 0.1773 | 1024.9 ± 0.29 | 1023.7 ± 0.28 | 1022.26 ± 0.28 | 1020.63 ± 0.28 | 1018.81 ± 0.27
m1 = 0.1964 | 1027.57 ± 0.29 | 1026.33 ± 0.29 | 1024.88 ± 0.28 | 1023.22 ± 0.28 | 1021.38 ± 0.28
m1 = 0.2144 | 1030.07 ± 0.3 | 1028.81 ± 0.29 | 1027.33 ± 0.29 | 1025.66 ± 0.29 | 1023.8 ± 0.28
m1 = 0.2229 | 1031.25 ± 0.3 | 1029.97 ± 0.3 | 1028.48 ± 0.29 | 1026.8 ± 0.29 | 1024.93 ± 0.28
m1 = 0.2509 | 1035.09 ± 0.31 | 1033.78 ± 0.3 | 1032.26 ± 0.3 | 1030.54 ± 0.3 | 1028.64 ± 0.29
m1 = 0.283 | 1039.47 ± 0.32 | 1038.11 ± 0.31 | 1036.55 ± 0.31 | 1034.8 ± 0.3 | 1032.87 ± 0.3
m1 = 0.2965 | 1041.3 ± 0.32 | 1039.92 ± 0.32 | 1038.34 ± 0.31 | 1036.58 ± 0.31 | 1034.63 ± 0.3
m1 = 0.3375 | 1046.82 ± 0.33 | 1045.39 ± 0.33 | 1043.77 ± 0.32 | 1041.96 ± 0.32 | 1039.98 ± 0.32
